System: umbilical cord tissue
Experiment: Isolation of cells from umbilical cord tissue using varying enzyme combinations
Type: cell-based, human
Parameters: key: + = good; ++ = very good; +++ = excellent; X = no success
Conditions: enzyme digest of umbilical cord tissue
Protocol: Umbilical cords were obtained from National Disease Research Interchange (NDRI, Philadelphia, Pa.). The tissues were obtained following normal deliveries. The cell isolation protocols were performed aseptically in a laminar flow hood. To remove blood and debris, the cord was washed in phosphate buffered saline (PBS; Invitrogen, Carlsbad, Calif.) in the presence of penicillin at 100 U/ml, streptomycin at […] and amphotericin B at 0.25 μg/ml (Invitrogen Carlsbad, Calif.). The tissues were then mechanically dissociated in 150 cm^2 tissue culture plates in the presence of 50 ml of medium (DMEM-low glucose or DMEM-high glucose; Invitrogen) until the tissue was minced into a fine pulp. The chopped tissues were transferred to 50 ml conical tubes (approximately 5 g of tissue per tube).
The tissue was then digested in either DMEM-low glucose medium or DMEM-high glucose medium, each containing penicillin at 100 U/ml, streptomycin at […], amphotericin B at 0.25 μg/ml and the digestion enzymes. In some experiments an enzyme mixture of collagenase and dispase was used (“C:D”) (collagenase (Sigma, St Louis, Mo.), 500 U/ml; and dispase (Invitrogen), 50 U/ml, in DMEM-Low glucose medium). In other experiments a mixture of collagenase, dispase and hyaluronidase (“C:D:H”) was used (C:D:H=collagenase, 500 U/ml; dispase, 50 U/ml; and hyaluronidase (Sigma), 5 U/ml, in DMEM-Low glucose). The conical tubes containing the tissue, medium and digestion enzymes were incubated at 37° C. in an orbital shaker (Environ, Brooklyn, N.Y.) at 225 rpm for 2 hours.
After digestion, the tissues were centrifuged at 150×g for 5 minutes, the supernatant was aspirated. The pellet was resuspended in 20 ml of growth medium (DMEM:Low glucose (Invitrogen), 15% (v/v) fetal bovine serum (FBS; defined fetal bovine serum; Lot #AND18475; Hyclone, Logan, Utah), 0.001% (v/v) 2-mercaptoethanol (Sigma), penicillin at 100 U/ml, streptomycin at 100 μg/ml, and amphotericin B at 0.25 μg/ml (each from Invitrogen, Carlsbad, Calif.)). The cell suspension was filtered through a 70 μm nylon BD FALCON Cell Strainer (BD Biosciences, San Jose, Calif.). An additional 5 ml rinse comprising growth medium was passed through the strainer. The cell suspension was then passed through a 40-μm nylon cell strainer (BD Biosciences, San Jose, Calif.) and chased with a rinse of an additional 5 ml of growth medium.
The filtrate was resuspended in growth medium (total volume 50 ml) and centrifuged at 150×g for 5 minutes. The supernatant was aspirated and the cells were resuspended in 50 ml of fresh growth medium. […]
After the final centrifugation, supernatant was aspirated and the cell pellet was resuspended in 5 ml of fresh growth medium. The number of viable cells was determined using trypan blue staining. […]

| Substance | Cell Expansion | Cells Isolated |
| --- | --- | --- |
| Hyaluronidase | X | X |
| Collagenase | X | X |
